From PMC8865417, “Receptor Interaction Profiles of 4-Alkoxy-3,5-Dimethoxy-Phenethylamines (Mescaline Derivatives) and Related Amphetamines” (Frontiers in Pharmacology, 2022)
Like-named read-outs stand apart in the source and are kept apart here.

What was measured:
humans = settings: cited from earlier work
hDAT = molecular target: T1, hDAT (Homo sapiens, UniProt Q01959); assay: Radioligand binding at hDAT ([3H]WIN35,428)
T1 construct: expressed in transfected cells; host or cells: HEK 293 cells (membrane preparations)
T1 sequence (Q01959 whole entry): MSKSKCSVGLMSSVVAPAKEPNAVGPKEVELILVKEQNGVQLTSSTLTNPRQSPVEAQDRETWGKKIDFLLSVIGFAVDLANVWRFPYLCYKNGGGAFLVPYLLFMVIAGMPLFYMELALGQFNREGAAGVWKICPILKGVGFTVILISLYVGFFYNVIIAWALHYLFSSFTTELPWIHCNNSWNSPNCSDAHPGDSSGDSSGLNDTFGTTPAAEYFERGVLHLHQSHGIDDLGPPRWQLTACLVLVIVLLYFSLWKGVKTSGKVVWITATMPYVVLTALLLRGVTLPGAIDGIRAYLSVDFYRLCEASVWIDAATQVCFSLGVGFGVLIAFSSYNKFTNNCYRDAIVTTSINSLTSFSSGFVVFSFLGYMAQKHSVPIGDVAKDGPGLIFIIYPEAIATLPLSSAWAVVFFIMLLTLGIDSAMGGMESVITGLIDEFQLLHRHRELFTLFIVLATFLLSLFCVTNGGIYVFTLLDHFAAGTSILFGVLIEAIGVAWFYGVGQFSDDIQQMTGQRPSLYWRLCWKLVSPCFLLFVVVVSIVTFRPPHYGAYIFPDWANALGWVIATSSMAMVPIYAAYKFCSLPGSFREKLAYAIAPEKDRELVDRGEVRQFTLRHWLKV

hSERT = molecular target: T2, hSERT (Homo sapiens, UniProt P31645); assay: Radioligand binding at hSERT ([3H]citalopram)
T2 construct: expressed in transfected cells; host or cells: HEK 293 cells (membrane preparations)
T2 sequence (P31645 whole entry): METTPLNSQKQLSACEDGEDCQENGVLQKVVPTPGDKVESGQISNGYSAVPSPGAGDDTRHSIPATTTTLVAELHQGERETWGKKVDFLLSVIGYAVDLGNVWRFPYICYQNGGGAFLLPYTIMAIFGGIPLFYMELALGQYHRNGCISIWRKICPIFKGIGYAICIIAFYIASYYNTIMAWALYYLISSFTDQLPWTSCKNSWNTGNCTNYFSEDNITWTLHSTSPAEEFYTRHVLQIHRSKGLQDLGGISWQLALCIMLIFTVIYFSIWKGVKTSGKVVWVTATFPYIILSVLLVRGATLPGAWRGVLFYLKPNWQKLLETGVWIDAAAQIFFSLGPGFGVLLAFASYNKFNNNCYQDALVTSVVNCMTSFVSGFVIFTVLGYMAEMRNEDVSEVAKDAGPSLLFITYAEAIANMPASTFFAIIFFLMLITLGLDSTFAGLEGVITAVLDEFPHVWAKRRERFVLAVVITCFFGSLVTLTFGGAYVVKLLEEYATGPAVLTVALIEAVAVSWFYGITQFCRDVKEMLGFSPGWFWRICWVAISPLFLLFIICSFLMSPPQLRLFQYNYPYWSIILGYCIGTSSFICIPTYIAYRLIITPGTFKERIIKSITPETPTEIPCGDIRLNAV

h5-HT2A receptor = molecular target: T3, h5-HT2A receptor (Homo sapiens, UniProt P28223); assay: Radioligand binding at h5-HT2A receptor ([3H]ketanserin); settings: for Selectivity 5-HT2A vs. 5-HT1A / Selectivity 5-HT2A vs. 5-HT2C: binding ratio; for Ki: h5-HT2A Receptor binding Ki ± SD, [3H]ketanserin, mean ± SD
T3 construct: expressed in transfected cells; host or cells: HEK 293 cells (membrane preparations)
T3 sequence (P28223 whole entry): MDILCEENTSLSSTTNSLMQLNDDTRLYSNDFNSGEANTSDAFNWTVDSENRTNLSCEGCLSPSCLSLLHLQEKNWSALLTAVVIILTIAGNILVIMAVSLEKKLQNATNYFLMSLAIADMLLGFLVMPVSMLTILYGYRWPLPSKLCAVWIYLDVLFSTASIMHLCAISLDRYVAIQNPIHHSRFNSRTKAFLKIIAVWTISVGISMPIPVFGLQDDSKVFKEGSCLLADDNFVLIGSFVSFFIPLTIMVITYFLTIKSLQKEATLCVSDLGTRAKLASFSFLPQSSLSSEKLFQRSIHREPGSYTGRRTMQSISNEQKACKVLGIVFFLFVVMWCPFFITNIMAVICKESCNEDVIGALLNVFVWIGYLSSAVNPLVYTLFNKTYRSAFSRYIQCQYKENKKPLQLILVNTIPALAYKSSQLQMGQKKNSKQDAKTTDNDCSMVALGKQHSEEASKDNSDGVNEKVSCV

human 5-HT2A receptor = human 5-HT2A receptor (Homo sapiens, UniProt P28223); settings: for Emax: NIH3T3, read-out: h5-HT2A Activation efficacy max ± SD, relative to 5-HT = 100%
Chain of human 5-HT2A receptor (P28223 whole entry): as above

h5-HT1A receptor = molecular target: T4, h5-HT1A receptor (Homo sapiens, UniProt P08908); assay: Radioligand binding at h5-HT1A receptor ([3H]8-OH-DPAT)
T4 construct: expressed in transfected cells; host or cells: HEK 293 cells (membrane preparations)
T4 sequence (P08908 1-422): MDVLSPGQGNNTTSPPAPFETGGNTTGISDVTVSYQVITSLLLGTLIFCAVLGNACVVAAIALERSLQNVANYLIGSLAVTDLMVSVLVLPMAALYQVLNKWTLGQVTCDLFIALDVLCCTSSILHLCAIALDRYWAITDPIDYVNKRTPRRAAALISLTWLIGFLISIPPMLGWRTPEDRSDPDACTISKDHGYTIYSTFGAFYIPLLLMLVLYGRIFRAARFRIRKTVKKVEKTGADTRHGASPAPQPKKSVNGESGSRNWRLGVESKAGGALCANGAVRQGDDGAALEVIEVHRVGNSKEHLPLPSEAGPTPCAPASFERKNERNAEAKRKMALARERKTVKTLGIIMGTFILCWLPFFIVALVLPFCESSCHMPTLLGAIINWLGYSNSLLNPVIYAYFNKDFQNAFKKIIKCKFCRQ

human 5-HT2B receptor = human 5-HT2B receptor (Homo sapiens, UniProt P41595); settings: for EC50: h5-HT2B Activation potency EC50 ± SD, HEK 293 cells, calcium FLIPR, mean ± SD; for Emax: HEK293, read-out: h5-HT2B Activation efficacy max ± SD, relative to 5-HT = 100%
Chain of human 5-HT2B receptor (P41595 whole entry): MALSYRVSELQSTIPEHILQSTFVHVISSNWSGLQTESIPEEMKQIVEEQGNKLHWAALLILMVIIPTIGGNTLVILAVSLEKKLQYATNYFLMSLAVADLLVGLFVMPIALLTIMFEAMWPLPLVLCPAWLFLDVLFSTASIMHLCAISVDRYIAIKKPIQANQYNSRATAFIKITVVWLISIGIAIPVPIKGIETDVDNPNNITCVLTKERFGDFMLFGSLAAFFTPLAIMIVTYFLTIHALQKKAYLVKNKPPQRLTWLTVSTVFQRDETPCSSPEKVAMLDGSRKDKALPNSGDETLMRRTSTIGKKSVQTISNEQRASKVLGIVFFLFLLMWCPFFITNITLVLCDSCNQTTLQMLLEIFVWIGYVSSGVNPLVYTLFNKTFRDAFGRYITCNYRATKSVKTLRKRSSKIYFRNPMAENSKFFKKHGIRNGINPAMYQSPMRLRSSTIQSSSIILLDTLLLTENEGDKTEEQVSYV

h5-HT2C receptor = molecular target: T5, h5-HT2C receptor (Homo sapiens, UniProt P28335); assay: biochemical; assay type: binding; settings: [3H]mesulergine; mean ± SD; read-out: h5-HT2C Receptor binding Ki ± SD
T5 construct: expressed in transfected cells; host or cells: HEK 293 cells (membrane preparations)
T5 sequence (P28335 33-458): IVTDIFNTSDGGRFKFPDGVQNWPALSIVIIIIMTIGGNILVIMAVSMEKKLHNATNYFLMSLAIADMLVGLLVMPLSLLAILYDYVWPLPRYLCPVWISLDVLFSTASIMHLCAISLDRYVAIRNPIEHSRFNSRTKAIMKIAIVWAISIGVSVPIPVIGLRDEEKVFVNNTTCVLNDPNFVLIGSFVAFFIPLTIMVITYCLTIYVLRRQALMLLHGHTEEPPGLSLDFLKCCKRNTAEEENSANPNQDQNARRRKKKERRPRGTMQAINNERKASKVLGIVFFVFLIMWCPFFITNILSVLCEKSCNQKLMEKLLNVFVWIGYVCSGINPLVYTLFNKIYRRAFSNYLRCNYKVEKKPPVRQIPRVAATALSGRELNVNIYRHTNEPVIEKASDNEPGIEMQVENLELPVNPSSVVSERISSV

mouse TAAR1 = molecular target: T6, mouse TAAR1 (Mus musculus, UniProt Q923Y8); assay: Radioligand binding at mouse TAAR1 ([3H]RO5166017)
T6 construct: expressed in transfected cells; host or cells: HEK 293 cells (membrane preparations)
T6 sequence (Q923Y8 whole entry): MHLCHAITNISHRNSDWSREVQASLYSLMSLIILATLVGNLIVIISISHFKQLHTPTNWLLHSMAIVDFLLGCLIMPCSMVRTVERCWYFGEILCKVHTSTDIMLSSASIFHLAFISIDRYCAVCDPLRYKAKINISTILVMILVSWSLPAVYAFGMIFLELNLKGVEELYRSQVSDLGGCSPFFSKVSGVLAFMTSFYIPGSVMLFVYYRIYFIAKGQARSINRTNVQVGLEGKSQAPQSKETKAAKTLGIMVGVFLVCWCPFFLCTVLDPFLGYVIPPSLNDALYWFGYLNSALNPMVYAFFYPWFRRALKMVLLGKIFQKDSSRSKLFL

hNET = molecular target: T7, hNET (Homo sapiens, UniProt P23975); assay: Radioligand binding at hNET (N-methyl-[3H]nisoxetine)
T7 construct: expressed in transfected cells; host or cells: HEK 293 cells (membrane preparations)
T7 sequence (P23975 whole entry): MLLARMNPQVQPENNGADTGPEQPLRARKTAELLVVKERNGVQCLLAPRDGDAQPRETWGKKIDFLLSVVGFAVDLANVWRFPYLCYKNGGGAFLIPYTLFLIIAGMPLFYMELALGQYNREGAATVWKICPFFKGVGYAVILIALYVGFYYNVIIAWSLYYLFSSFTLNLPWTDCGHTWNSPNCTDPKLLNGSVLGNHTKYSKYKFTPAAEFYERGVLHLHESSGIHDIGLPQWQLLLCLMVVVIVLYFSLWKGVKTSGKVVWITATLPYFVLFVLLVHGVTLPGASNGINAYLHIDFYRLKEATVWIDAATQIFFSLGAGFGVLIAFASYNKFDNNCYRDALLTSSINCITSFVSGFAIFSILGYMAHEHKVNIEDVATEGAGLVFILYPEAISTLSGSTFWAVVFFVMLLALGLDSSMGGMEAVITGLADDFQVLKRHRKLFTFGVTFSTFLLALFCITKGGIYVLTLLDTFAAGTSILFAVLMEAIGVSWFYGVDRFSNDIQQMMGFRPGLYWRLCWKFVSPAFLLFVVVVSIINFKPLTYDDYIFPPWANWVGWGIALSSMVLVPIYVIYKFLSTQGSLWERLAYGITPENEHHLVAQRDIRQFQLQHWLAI

rat TAAR1 = molecular target: T8, rat TAAR1 (Rattus norvegicus, UniProt Q923Y9); assay: Radioligand binding at rat TAAR1 ([3H]RO5166017)
T8 construct: expressed in transfected cells; host or cells: HEK 293 cells (membrane preparations)
T8 sequence (Q923Y9 whole entry): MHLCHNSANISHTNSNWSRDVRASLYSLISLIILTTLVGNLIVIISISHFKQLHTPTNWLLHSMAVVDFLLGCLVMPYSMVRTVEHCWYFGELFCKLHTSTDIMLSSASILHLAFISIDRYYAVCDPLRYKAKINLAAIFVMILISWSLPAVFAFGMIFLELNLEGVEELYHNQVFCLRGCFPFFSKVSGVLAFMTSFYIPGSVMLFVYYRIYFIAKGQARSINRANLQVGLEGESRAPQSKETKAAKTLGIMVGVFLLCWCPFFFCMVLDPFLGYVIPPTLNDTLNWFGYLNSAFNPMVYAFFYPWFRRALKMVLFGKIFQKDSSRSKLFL

hα2A adrenergic receptor = molecular target: T9, hα2A adrenergic receptor (Homo sapiens, UniProt P08913); assay: Radioligand binding at hα2A adrenergic receptor ([3H]rauwolscine)
T9 construct: expressed in transfected cells; host or cells: Chinese hamster lung cells (membrane preparations)
T9 sequence (P08913 1-465): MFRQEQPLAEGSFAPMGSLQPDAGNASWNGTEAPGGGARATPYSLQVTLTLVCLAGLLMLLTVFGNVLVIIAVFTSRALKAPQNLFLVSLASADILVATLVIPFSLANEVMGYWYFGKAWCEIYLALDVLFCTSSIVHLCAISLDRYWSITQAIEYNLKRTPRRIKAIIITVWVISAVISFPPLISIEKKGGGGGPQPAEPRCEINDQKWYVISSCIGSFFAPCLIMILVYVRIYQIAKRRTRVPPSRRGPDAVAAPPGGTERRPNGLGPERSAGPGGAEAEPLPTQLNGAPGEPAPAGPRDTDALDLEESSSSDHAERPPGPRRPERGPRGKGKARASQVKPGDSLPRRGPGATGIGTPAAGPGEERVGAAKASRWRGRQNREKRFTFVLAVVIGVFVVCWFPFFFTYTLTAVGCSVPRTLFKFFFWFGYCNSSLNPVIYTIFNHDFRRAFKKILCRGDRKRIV

hα1A adrenergic receptor = molecular target: T10, hα1A adrenergic receptor (Homo sapiens, UniProt P35348); assay: Radioligand binding at hα1A adrenergic receptor ([3H]prazosin); settings: mean ± SD
T10 construct: expressed in transfected cells; host or cells: Chinese hamster ovary cells (membrane preparations)
T10 sequence (P35348 1-466): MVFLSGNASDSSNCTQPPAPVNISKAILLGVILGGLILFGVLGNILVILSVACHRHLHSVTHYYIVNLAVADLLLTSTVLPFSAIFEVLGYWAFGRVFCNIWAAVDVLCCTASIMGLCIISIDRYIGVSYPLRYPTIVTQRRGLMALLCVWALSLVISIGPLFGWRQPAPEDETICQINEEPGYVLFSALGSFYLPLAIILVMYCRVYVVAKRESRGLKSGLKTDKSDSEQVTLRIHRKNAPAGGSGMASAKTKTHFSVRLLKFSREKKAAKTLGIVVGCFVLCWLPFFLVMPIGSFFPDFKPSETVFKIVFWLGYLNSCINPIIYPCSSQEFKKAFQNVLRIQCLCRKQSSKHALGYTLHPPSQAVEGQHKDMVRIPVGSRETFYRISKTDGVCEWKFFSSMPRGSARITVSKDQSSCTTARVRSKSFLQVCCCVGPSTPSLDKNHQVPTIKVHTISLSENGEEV

[1] = molecular target: T11, dopaminergic hD2 receptor (Homo sapiens, UniProt P14416); assay: Radioligand binding at dopaminergic hD2 receptor ([3H]spiperone)
T11 construct: expressed in transfected cells; host or cells: HEK 293 cells (membrane preparations)
T11 sequence (P14416 whole entry): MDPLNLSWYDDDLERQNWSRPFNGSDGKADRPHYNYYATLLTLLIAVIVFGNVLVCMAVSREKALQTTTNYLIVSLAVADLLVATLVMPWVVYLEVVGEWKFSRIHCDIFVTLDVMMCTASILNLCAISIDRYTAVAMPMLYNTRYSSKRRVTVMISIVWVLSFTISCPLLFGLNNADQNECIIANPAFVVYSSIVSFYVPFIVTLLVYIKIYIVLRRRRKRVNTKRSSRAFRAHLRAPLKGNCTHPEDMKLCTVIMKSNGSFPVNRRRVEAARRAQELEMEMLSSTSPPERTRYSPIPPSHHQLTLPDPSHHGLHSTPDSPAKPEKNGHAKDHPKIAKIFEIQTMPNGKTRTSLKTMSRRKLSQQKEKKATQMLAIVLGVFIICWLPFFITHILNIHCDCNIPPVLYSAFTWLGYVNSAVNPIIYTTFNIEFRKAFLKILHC

Row | SMILES | Ki (hDAT) | Ki (hSERT) | Selectivity 5-HT2A vs. 5-HT2C (h5-HT2A receptor) | Ki (h5-HT2A receptor) | EC50 (human 5-HT2A receptor) | Emax (human 5-HT2A receptor) | Ki (h5-HT1A receptor) | EC50 (human 5-HT2B receptor) | Ki (h5-HT2C receptor) | Ki (mouse TAAR1) | Ki (hNET) | Ki (rat TAAR1) | Ki (hα2A adrenergic receptor) | Ki (hα1A adrenergic receptor) | Ki [1] | Emax (human 5-HT2B receptor) | further results
1 | COc1cc(CC(C)N)c(OC)cc1Br (stereo not drawn) [compound 2, 4-bromo-2,5-dimethoxyamphetamine, reference compound] | – | – | – | – | – | – | – | – | – | – | – | – | – | – | – | – | Psychedelic / active dose in humans (humans; ref Shulgin and Shulgin 1991): 1 to 3 mg
2 | COc1cc(CC(C)N)c(OC)cc1C (stereo not drawn) [compound 7, 2,5-dimethoxy-4-methylamphetamine, reference compound] | – | – | – | – | – | – | – | – | – | – | – | – | – | – | – | – | Psychedelic / active dose in humans (humans; ref Shulgin and Shulgin 1991): 3 to 10 mg
3 | COc1cc(CCN)cc(OC)c1SC [compound 10, 4-thiomescaline, reference compound] | – | – | – | – | – | – | – | – | – | – | – | – | – | – | – | – | Increase in human potency compared to mescaline (5) (humans; ref Shulgin and Shulgin 1991): 10 fold; Psychedelic / active dose in humans (humans; ref Shulgin and Shulgin 1991): 20 to 40 mg
4 | COc1cc(CCN)cc(OC)c1OC(F)F [compound 12, 4-difluoromethoxy-3,5-dimethoxyphenethylamine] | > 8.5 µM | > 7.5 µM | 0.8 | 3.5 µM | 1.5 µM | 85 to 94% | 2.5 µM | > 10 µM | 2.8 µM | > 4.2 µM | > 9.7 µM | 0.88 ± 0.18 µM | 1.7 µM | 8 µM | > 6.3 µM | – | Selectivity 5-HT2A vs. 5-HT1A (h5-HT2A receptor): 0.7; Increase in human potency compared to mescaline (5) (humans; ref Trachsel 2012): 4 fold
5 | COc1cc(CCN)cc(OC)c1OCCF [compound 16, 3,5-dimethoxy-4-(2-fluoroethoxy)phenethylamine] | > 8.5 µM | > 7.5 µM | – | > 12 µM | 5.7 µM | 85 to 94% | > 5.6 µM | 2.3 µM | 5.7 µM | > 4.2 µM | > 9.7 µM | > 4 µM | 3.7 µM | > 8.7 µM | > 6.3 µM | 29 ± 7% | –
6 | COc1cc(CCN)cc(OC)c1OCC(F)F [compound 17, 4-(2,2-difluoroethoxy)-3,5-dimethoxyphenethylamine] | > 8.5 µM | > 7.5 µM | 0.9 | 2.9 µM | 1.3 µM | 44 to 78% | > 5.6 µM | 1.7 µM | 2.7 µM | > 4.2 µM | > 9.7 µM | 2.1 µM | 2.7 µM | > 8.7 µM | > 6.3 µM | 25 ± 7% | –
7 | COc1cc(CC(C)N)cc(OC)c1OCC(F)F (stereo not drawn) [compound 19, 4-(2,2-difluoroethoxy)-3,5-dimethoxyamphetamine] | > 8.5 µM | > 7.5 µM | 1.7 | 1.5 µM | 0.12 ± 0.02 µM | 86 to 102% | > 5.6 µM | 0.26 ± 0.03 µM | 2.6 µM | > 4.2 µM | > 9.7 µM | 3.9 µM | > 5.1 µM | > 8.7 µM | > 6.3 µM | 18 to 29% | –
8 | COc1cc(CC(C)N)cc(OC)c1OCCF (stereo not drawn) [compound 20, 3,5-dimethoxy-4-(2-fluoroethoxy)amphetamine] | > 8.5 µM | > 7.5 µM | – | 12 µM | 0.12 ± 0.04 µM | 86 to 102% | > 5.6 µM | 0.8 ± 0.24 µM | 8.4 µM | > 4.2 µM | > 9.7 µM | > 4.7 µM | > 5.1 µM | > 8.7 µM | > 6.3 µM | 18 to 29% | Selectivity 5-HT2A vs. 5-HT1A (h5-HT2A receptor): >1
9 | COc1cc(CCN)cc(OC)c1OC(C)C [compound 22, 3,5-dimethoxy-4-isopropoxyphenethylamine] | > 8.5 µM | > 7.5 µM | 0.9 | 6.2 µM | 1.9 µM | – | > 5.6 µM | > 10 µM | 5.4 µM | > 4.2 µM | > 9.7 µM | > 4.7 µM | 1.2 µM | > 8.7 µM | > 6.3 µM | – | Selectivity 5-HT2A vs. 5-HT1A (h5-HT2A receptor): >1
10 | COc1cc(CC(C)N)cc(OC)c1OCCCF (stereo not drawn) [compound 27, 3,5-dimethoxy-4-(3-fluoropropoxy)-amphetamine] | > 8.5 µM | > 7.5 µM | 1.7 | 2.6 µM | 0.057 ± 0.002 µM | – | > 5.6 µM | > 10 µM | 4.4 µM | 2.8 µM | > 9.7 µM | > 4.7 µM | > 5.1 µM | > 8.7 µM | > 6.3 µM | – | –
11 | C=CCOc1c(OC)cc(CC(C)N)cc1OC (stereo not drawn) [compound 31, 4-allyloxy-3,5-dimethoxyamphetamine] | > 8.5 µM | > 7.5 µM | 1.7 | 1.1 µM | 0.19 ± 0.03 µM | – | > 5.6 µM | > 10 µM | 1.7 µM | 3.3 µM | > 9.7 µM | 3.6 µM | > 5.1 µM | > 8.7 µM | > 6.3 µM | – | Increase in 5-HT2A receptor affinity compared with TMA (6) (h5-HT2A receptor; ratio of Ki values): ≥ 10 fold; Active dose in humans (humans; ref Trachsel et al., 2013): 15 to 30 mg
